The target in the assay is T1, full-length human PKCι (Homo sapiens, UniProt P41743).
T1 construct: Recombinant, full-length human PKCι expressed in Sf21 insect cells is also commercially available; purchased; host or cells: Sf21 insect cells
T1 sequence (P41743 1-596): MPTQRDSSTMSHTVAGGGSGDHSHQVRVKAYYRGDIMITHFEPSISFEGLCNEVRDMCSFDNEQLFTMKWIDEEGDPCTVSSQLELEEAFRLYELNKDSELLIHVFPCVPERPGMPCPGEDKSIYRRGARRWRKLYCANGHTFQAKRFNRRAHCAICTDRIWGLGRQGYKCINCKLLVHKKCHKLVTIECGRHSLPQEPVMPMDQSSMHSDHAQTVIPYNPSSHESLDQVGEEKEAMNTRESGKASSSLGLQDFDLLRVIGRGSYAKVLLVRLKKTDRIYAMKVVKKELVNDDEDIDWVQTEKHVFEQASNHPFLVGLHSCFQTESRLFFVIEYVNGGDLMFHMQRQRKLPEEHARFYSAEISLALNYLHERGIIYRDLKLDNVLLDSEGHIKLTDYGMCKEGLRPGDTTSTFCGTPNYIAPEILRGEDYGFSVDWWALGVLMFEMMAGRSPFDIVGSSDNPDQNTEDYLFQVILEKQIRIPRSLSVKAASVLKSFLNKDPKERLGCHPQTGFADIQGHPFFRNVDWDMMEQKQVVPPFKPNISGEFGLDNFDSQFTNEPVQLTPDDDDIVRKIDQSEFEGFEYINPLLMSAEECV
The assay can be described thus: PKCι IC50 IMAP assay, full-length PKCι at 150 μM ATP. It counts as biochemical. The following applies: read-out: IC50 in IMAP assay against full length PKCi at 150 μM ATP. An outline of the steps: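 Full-length hPKCι (Sf21) ~15 pM; 5FAM-peptide 100 nM; ATP 150 μM (5× KM^APP); tris pH7.5/MgCl2/EGTA/DTT/Triton, 4% DMSO; 60 min RT; IMAP stop, 2 h; FP 485/530 nm; IC50 from % inhibition curves.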

Consider `Fc1ccc(Nc2cc(-c3nc(N4CCNCC4)c4c(C5CC5)cncc4n3)ccn2)c(F)n1` [Example 671, [4-(5-Cyclopropyl-4-piperazin-1-yl-pyrido[3,4-d]pyrimidin-2-yl)-pyridin-2-yl]-(2,6-difluoro-pyridin-3-yl)-amine], for which the IC50 was < 100 nM. As for `COc1ccnc(Nc2cc(-c3nc(N4CCNCC4)c4c(OC)cncc4n3)ccn2)c1` [Example 401, [4-(5-Methoxy-4-piperazin-1-yl-pyrido[3,4-d]pyrimidin-2-yl)-pyridin-2-yl]-(4-methoxy-pyridin-2-yl)-amine], the figure is < 100 nM. On to `N#Cc1cc(F)c(Nc2cc(-c3nc(N4CCNCC4)c4c(C5CC5)cncc4n3)ccn2)c(F)c1` [Example 740, 4-[4-(5-Cyclopropyl-4-piperazin-1-yl-pyrido[3,4-d]pyrimidin-2-yl)-pyridin-2-ylamino]-3,5-difluoro-benzonitrile], for which the IC50 lay in the range of 100 to 1000 nM.

In the case of `Fc1ccnc(F)c1Nc1cc(-c2nc(N3CCNCC3)c3c(C4CC4)cncc3n2)ccn1` [Example 670, [4-(5-Cyclopropyl-4-piperazin-1-yl-pyrido[3,4-d]pyrimidin-2-yl)-pyridin-2-yl]-(2,4-difluoro-pyridin-3-yl)-amine], the IC50 is < 100 nM.

With `Cc1noc(C)c1-c1nccc2c(NC[C@@H](N)Cc3ccccc3)nc(-c3ccncc3)nc12` [Example 112, N-[(2S)-2-amino-3-phenylpropyl]-8-(dimethyl-1,2-oxazol-4-yl)-2-(pyridin-4-yl)-pyrido[3,4-d]-pyrimidin-4-amine], the IC50 lay in the range of 10000 to 40000 nM.

For `Fc1cc(F)c(Nc2cc(-c3nc(N4CCNCC4)c4c(C5CC5)cnc(C5CC5)c4n3)ccn2)nc1F` [Example 2187, [4-(5,8-Dicyclopropyl-4-piperazin-1-yl-pyrido[3,4-d]pyrimidin-2-yl)-pyridin-2-yl]-(3,5,6-trifluoro-pyridin-2-yl)-amine], the IC50 is 100 to 1000 nM. As for `CS(=O)(=O)Nc1cccc(-c2nccc3c(NC[C@@H](N)Cc4ccccc4)nc(-c4ccncc4)nc23)c1` [Example 88, N-{3-[4-((S)-2-Amino-3-phenyl-propylamino)-2-pyridin-4-yl-pyrido[3,4-d]pyrimidin-8-yl]-phenyl}-methanesulfonamide], the figure is 100 to 1000 nM. As for `FC[C@H]1CN(c2nc(-c3ccnc(Nc4ccccc4)c3)nc3cncc(C4CC4)c23)CCN1` [Example 552, {4-[5-Cyclopropyl-4-((R)-3-fluoromethyl-piperazin-1-yl)-pyrido[3,4-d]pyrimidin-2-yl]-pyridin-2-yl}-phenyl-amine], the figure is < 100 nM. As for `N#Cc1cccc(Nc2cc(-c3nc(N4CC[C@H](O)[C@H](O)C4)c4c(C5CC5)cncc4n3)ccn2)n1` (relative stereo) [Example 745, 6-{4-[5-Cyclopropyl-4-((cis)-3,4-dihydroxy-piperidin-1-yl)-pyrido[3,4-d]pyrimidin-2-yl]-pyridin-2-ylamino}-pyridine-2-carbonitrile], the figure is 100 to 1000 nM; as for `c1cc(-c2nc(N3CCNCC3)c3c(C4CC4)cncc3n2)cc(Nc2cnn(C3CC3)c2)n1` [Example 794, [4-(5-Cyclopropyl-4-piperazin-1-yl-pyrido[3,4-d]pyrimidin-2-yl)-pyridin-2-yl]-(1-cyclopropyl-1H-pyrazol-4-yl)-amine], < 100 nM.

Take `CN[C@H](CNc1nc(-c2ccncc2)nc2cnccc12)Cc1ccccc1` [Example 80, methyl[(2S)-1-phenyl-3-{[2-(pyridin-4-yl)pyrido[3,4-d]pyrimidin-4-yl]amino}propan-2-yl]amine]: the IC50 fell in the range of 100 to 1000 nM.

For `Oc1nc(-c2ccnc(Nc3cccc(CN4CCNCC4)c3)c2)nc2cnccc12` [Example 498, 2-[2-(3-piperazin-1-ylmethyl-phenylamino)-pyridin-4-yl]-pyrido[3,4-d]pyrimidin-4-ol], the IC50 was 10000 to 40000 nM. The value for `COc1cncc2nc(-c3ccnc(NC4CCCC4)c3)nc(N3CCNCC3)c12` [Example 241, Cyclopentyl-[4-(5-methoxy-4-piperazin-1-yl-pyrido[3,4-d]pyrimidin-2-yl)-pyridin-2-yl]-amine] was < 100 nM; that for `OC1CCN(c2nc(-c3ccnc4[nH]c(C(F)(F)F)cc34)nc3cncc(C4CC4)c23)CC1` [Example 1239, 1-[5-Cyclopropyl-2-(2-trifluoromethyl-1H-pyrrolo[2,3-b]pyridin-4-yl)-pyrido[3,4-d]pyrimidin-4-yl]-piperidin-4-ol] was < 100 nM; that for `COc1cncc2nc(-c3ccnc(Nc4ccccc4)c3)nc(N3CCC(CO)CC3)c12` [Example 244, {1-[5-Methoxy-2-(2-phenylamino-pyridin-4-yl)-pyrido[3,4-d]pyrimidin-4-yl]-piperidin-4-yl}-methanol] was 1000 to 10000 nM. As for `FC(F)(CNc1cc(-c2nc(N3CCNCC3)c3c(C4CC4)cncc3n2)ccn1)c1ccccc1` [Example 2166, [4-(5-Cyclopropyl-4-piperazin-1-yl-pyrido[3,4-d]pyrimidin-2-yl)-pyridin-2-yl]-(2,2-difluoro-2-phenyl-ethyl)-amine], the figure is < 100 nM; as for `c1ccc2c(c1)CC[C@@H]2Nc1cc(-c2nc(N3CCNCC3)c3c(C4CC4)cncc3n2)ccn1` [Example 2099, [4-(5-Cyclopropyl-4-piperazin-1-yl-pyrido[3,4-d]pyrimidin-2-yl)-pyridin-2-yl]-(S)-indan-1-yl-amine], < 100 nM; as for `COc1cncc2nc(-c3ccnc(Nc4ccccc4)c3)nc(N3CCC(C)(O)CC3)c12` [Example 223, 1-[5-Mcthoxy-2-(2-phenylamino-pyridin-4-yl)-pyrido[3,4-d]pyrimidin-4-yl]-4-methyl-piperidin-4-ol], 1000 to 10000 nM.

Consider `Fc1cnc(Nc2cc(-c3nc(N4CCNCC4)c4c(C5CC5)cncc4n3)ccn2)c(F)c1` [Example 704, [4-(5-Cyclopropyl-4-piperazin-1-yl-pyrido[3,4-d]pyrimidin-2-yl)-pyridin-2-yl]-(3,5-difluoro-pyridin-2-yl)-amine], for which the IC50 was < 100 nM. As for `Fc1cccc(F)c1Nc1cc(-c2nc(NCC3CCNCC3)c3c(C4CC4)cncc3n2)ccn1` [Example 2107, {5-Cyclopropyl-2-[2-(2,6-difluoro-phenylamino)-pyridin-4-yl]-pyrido[3,4-d]pyrimidin-4-yl}-piperidin-4-ylmethyl-amine], the figure is < 100 nM; as for `Fc1cc(F)c(Nc2cc(-c3nc(N4CCNCC4)c4c(C5CC5)cncc4n3)ccn2)nc1F` [Example 680], < 100 nM; as for `C[C@H]1CN(c2nc(-c3ccnc(Nc4nc(F)ccc4F)c3)nc3cncc(C4CCC4)c23)CCN1` [Example 798, {4-[5-Cyclobutyl-4-((S)-3-methyl-piperazin-1-yl)-pyrido[3,4-d]pyrimidin-2-yl]-pyridin-2-yl}-(3,6-difluoro-pyridin-2-yl)-amine], < 100 nM.

In the case of `Fc1cnc(Nc2cc(-c3nc(N4CCNCC4)c4c(C5CC5)cnc(C5CC5)c4n3)ccn2)c(F)c1` [Example 2188, [4-(5,8-Dicyclopropyl-4-piperazin-1-yl-pyrido[3,4-d]pyrimidin-2-yl)-pyridin-2-yl]-(3,5-difluoro-pyridin-2-yl)-amine], the IC50 lay in the range of 100 to 1000 nM. The value for `COc1cncc2nc(-c3ccnc(NC(=O)Cc4cccnc4)c3)nc(N[C@@H]3CCNC3)c12` [Example 396, N-{4-[5-Methoxy-4-((R)-pyrrolidin-3-ylamino)-pyrido[3,4-d]pyrimidin-2-yl]-pyridin-2-yl}-2-pyridin-3-yl-acetamide] was < 100 nM; that for `Fc1cnc(Nc2cc(-c3nc(NC4CCNCC4(F)F)c4c(C5CC5)cncc4n3)ccn2)c(F)c1` (centres unmarked) [Example 2156, {5-Cyclopropyl-2-[2-(3,5-difluoro-pyridin-2-ylamino)-pyridin-4-yl]-pyrido[3,4-d]pyrimidin-4-yl}-(3,3-difluoro-piperidin-4-yl)-amine] was 100 to 1000 nM. As for `NC(=O)c1ccc(Nc2cc(-c3nc(N[C@@H]4CCNC4)c4ccncc4n3)ccn2)cc1` [Example 304, 4-{4-[4-((R)-Pyrrolidin-3-ylamino)-pyrido[3,4-d]pyrimidin-2-yl]-pyridin-2-ylamino}-benzamide], the figure is 100 to 1000 nM; as for `F[C@H]1C[C@@H](Nc2cc(-c3nc(N4CCNCC4)c4c(C5CC5)cncc4n3)ccn2)C1` [Example 703, (+/−)cis-[4-(5-Cyclopropyl-4-piperazin-1-yl-pyrido[3,4-d]pyrimidin-2-yl)-pyridin-2-yl]-(3-fluoro-cyclobutyl)-amine], < 100 nM.

In the case of `Fc1ccnc(Nc2cc(-c3nc(N4CCNCC4)c4c(C5CC5)cncc4n3)ccn2)c1` [Example 756, [4-(5-Cyclopropyl-4-piperazin-1-yl-pyrido[3,4-d]pyrimidin-2-yl)-pyridin-2-yl]-(4-fluoro-pyridin-2-yl)-amine], the IC50 was < 100 nM. The value for `OC1CCN(c2nc(-c3ccnc(Nc4cccc(N5CCNCC5)c4)c3)nc3cncc(C4CC4)c23)CC1` [Example 729, 1-{5-Cyclopropyl-2-[2-(3-piperazin-1-yl-phenylamino)-pyridin-4-yl]-pyrido[3,4-d]pyrimidin-4-yl}-piperidin-4-ol] was < 100 nM.

Source of the values: patent publication US9914730B2, “Azaquinazoline inhibitors of Atypical protein Kinase C” (Ignyta, Inc., priority 2012, dated 2018).
